Assays:
[1] = tested on: a variety of test species; test: Pre-emergence herbicidal activity (Example 8a, Table 2); type: in vivo; design: key: 0 = no damage to plant, 5 = total damage to plant; settings: application pre-emergence, rate 1000 g/ha, evaluated after 13 days
Method in brief: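 Sow in pots of standard soil; after one day under glasshouse conditions, spray compound (acetone/water 50:50 formulation, 0.5% Tween 20, diluted in water). Grow on at 24/16 °C, 14 h light, 65% humidity with twice-daily watering. Assess at 13 days, 0–5 damage scale.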

[2] = tested on: a variety of test species; test: Post-emergence herbicidal activity (Example 8b, Table 3); type: in vivo; settings: application post-emergence, rate 1000 g/ha, evaluated after 13 days, scale 0-5; for Herbicidal damage score, ABUTH: Abutilon theophrasti; for Herbicidal damage score, ALOMY: Alopecurus myosuroides; for Herbicidal damage score, AMARE: Amaranthus retroflexus; for Herbicidal damage score, ECHCG: Echinochloa crus-galli; for Herbicidal damage score, SETFA: Setaria faberi; for Herbicidal damage score, ZEAMX: Zea mays
Method in brief: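 Pot-grown seedlings sprayed 8 days after sowing with active ingredient in acetone/water (50:50) plus 0.5% Tween 20. Glasshouse at 24/16 °C day/night, 14 h light, 65% humidity, watered twice daily. Damage scored after 13 days on a 0–5 scale (5 = total damage, 0 = none).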

SMILES | Pre-emergence herbicidal activity, damage score ABUTH [1] | Pre-emergence herbicidal activity, damage score ALOMY [1] | Pre-emergence herbicidal activity, damage score AMARE [1] | Pre-emergence herbicidal activity, damage score ECHCG [1] | Pre-emergence herbicidal activity, damage score SETFA [1] | Pre-emergence herbicidal activity, damage score ZEAMX [1] | Herbicidal damage score, ABUTH [2] | Herbicidal damage score, ALOMY [2] | Herbicidal damage score, AMARE [2] | Herbicidal damage score, ECHCG [2] | Herbicidal damage score, SETFA [2] | Herbicidal damage score, ZEAMX [2]
CC1=C(Cl)C(=O)N(c2cc(C(F)C(C)(C)C)n(C)n2)C1O (mixture of isomers) [Compound B37] | 4 | 3 | 5 | 3 | 4 | 3 | 4 | 5 | 5 | 5 | 5 | 4
CC(C)=C(C)c1cc(N2C(=O)C(Cl)=C(C)C2O)nn1C (stereo not drawn) [Compound B48] | 4 | 4 | 5 | 4 | 3 | 1 | 5 | 4 | 5 | 5 | 4 | 1
COC1=C(OC)C(O)N(c2cc(C(F)(F)F)n(C)n2)C1=O (stereo not drawn) [Compound T2] | 5 | 4 | 4 | 5 | 5 | 4 | 5 | 5 | 5 | 5 | 5 | 5
CC1=C(Br)C(=O)N(c2cc3n(n2)CCCC3(C)C)C1O (stereo not drawn) [Compound M2] | 5 | 4 | 5 | 5 | 4 | 3 | 5 | 5 | 5 | 5 | 5 | 3
CC1=C(Cl)C(=O)N(c2nn(C)c(C(C)(C)C)c2C#N)C1O (stereo not drawn) [Compound D2] | 5 | 4 | 5 | 4 | 4 | 2 | 5 | 4 | 5 | 5 | 5 | 3
CC1=C(Cl)C(=O)N(c2cc(C(C)(F)C(C)(C)C)n(C)n2)C1O (mixture of isomers) [Compound B40] | 5 | 1 | 3 | 2 | 3 | 0 | 5 | 4 | 5 | 5 | 5 | 1
CC1=C(Cl)C(=O)N(c2cc(CCC(C)C)n(C)n2)C1O (stereo not drawn) [Compound B27] | 3 | 1 | 5 | 4 | 3 | 2 | 3 | 1 | 2 | 5 | 5 | 0
CC1=C(Cl)C(=O)N(c2ccn(C)n2)C1O (stereo not drawn) [Compound B15] | 4 | 3 | 5 | 4 | 4 | 2 | 4 | 3 | 4 | 4 | 2 | 1
CCC1CCn2nc(N3C(=O)C(Cl)=C(C)C3O)cc21 (mixture of isomers) [Compound C10] | 4 | 4 | 5 | 4 | 5 | 2 | 5 | 4 | 5 | 5 | 5 | 4
CC1=C(Cl)C(=O)N(c2cc(C(F)(F)F)n(C)n2)C1O (stereo not drawn) [Compound B3] | 5 | 4 | 4 | 5 | 4 | 2 | 5 | 5 | 5 | 5 | 5 | 4
CCn1nc(N2C(=O)C(Cl)=C(C)C2O)c2c1C(C)(C)CC2 (stereo not drawn) [Compound C3] | 5 | 4 | 5 | 5 | 4 | 2 | 5 | 4 | 5 | 5 | 5 | 4
CC1=C(Cl)C(=O)N(c2cc(C#CCC(C)C)n(C)n2)C1O (stereo not drawn) [Compound B30] | 0 | 0 | 2 | 0 | 0 | 0 | 3 | 0 | 3 | 0 | 2 | 0

Source: US9605004B2, “Chemical compounds” (SYNGENTA LIMITED, priority 2013, dated 2017)
